# Results published in US20230017045A1, “PYRIDINE AND PYRIMIDINE CARBOXYLATE HERBICIDES AND METHODS OF USE THEREOF” (Dow AgroSciences LLC, priority 2017, published 2023).
# Tested on: test plant species
# Assay: Post-emergent herbicidal activity test (greenhouse, foliar spray, visual growth reduction)
# Assay type: in vivo
# Conditions: post-emergence, 336 h, ECHCG: barnyardgrass (Echinochloa crus-galli), 140 g ai/ha, 14 days after application, read-out: Visual Growth Reduction (%) 14 Days After Application, ECHCG
# Procedure: Post-emergent Test: Seeds or nutlets of the desired test plant species were planted in Sun Gro Metro-Mix® 360 planting mixture, which typically has a pH of 6.0 to 6.8 and an organic matter content of about 30 percent, in plastic pots with a surface area of 64 square centimeters. In some aspects, to ensure good germination and healthy plants, a fungicide treatment and/or other chemical or physical treatment was applied. The plants were grown for 7-21 d in a greenhouse with an approximate 15 h photoperiod which was maintained at 23-29° C. during the day and 22-28° C. during the night. Nutrients and water were added on a regular basis and supplemental lighting was provided with overhead metal halide 1000-Watt lamps as necessary. Plants were used for testing when they reached the first or second true leaf stage. A weighed amount, determined by the highest rate to be tested, of each test compound was placed in a 25 mL glass vial and was dissolved in 4 mL of a 97:3 v/v mixture of acetone and DMSO to obtain concentrated stock solutions. […] The concentrated stock solutions obtained were diluted with 20 mL of an aqueous mixture containing acetone, water, isopropyl alcohol, DMSO, […] crop oil concentrate, and X-77 surfactant in a 48.5:39:10:1.5:1.0:0.02 v/v ratio to obtain spray solutions containing the application rate. Compound requirements are based upon a 12 mL application volume at a rate of 187 liters per hectare (L/ha). Formulated compounds were applied to the plant material with an overhead Mandel track sprayer equipped with […] nozzles calibrated to deliver 187 L/ha over an application area of 0.64 square meters at a spray height of 18 inches (43 cm) above the average plant canopy height. Control plants were sprayed in the same manner with the solvent blank. The treated plants and control plants were placed in a greenhouse as described above and watered by subirrigation to prevent wash-off of the test compounds. After 14 d, the condition of the test plants as compared with that of the nontreated and control plants was determined visually and scored on a scale of 0 to 100 percent where 0 corresponds to no injury and 100 corresponds to complete control. In the reporting of the results, Table A: Percent Growth Reduction Conversion Table was used.
row,SMILES,pest or weed control at 140 g/ha [%]
1,"COC(=O)c1nc(-c2ccc(OS(C)(=O)=O)cc2Cl)ccc1Cl [F288, methyl 3-chloro-6-(2-chloro-4-((methylsulfonyl)oxy)phenyl)picolinate]",60 to 74
2,"COc1c(Cl)ccc(-c2ccc(Cl)c(C(=O)OCc3ccccc3)n2)c1F [F299, Benzyl 3-chloro-6-(4-chloro-2-fluoro-3-methoxyphenyl) picolinate]",0 to 29

# Same assay, conditions: post-emergence, 336 h, IPOHE: ivy-leaf morning glory (Ipomoea hederacea), 140 g ai/ha, 14 days after application, read-out: Visual Growth Reduction (%) 14 Days After Application, IPOHE
row,SMILES,pest or weed control at 140 g/ha [%]
1,"COC(=O)c1nc(-c2ccc(OS(C)(=O)=O)cc2Cl)ccc1Cl [F288, methyl 3-chloro-6-(2-chloro-4-((methylsulfonyl)oxy)phenyl)picolinate]",95 to 100
2,"COc1c(Cl)ccc(-c2ccc(Cl)c(C(=O)OCc3ccccc3)n2)c1F [F299, Benzyl 3-chloro-6-(4-chloro-2-fluoro-3-methoxyphenyl) picolinate]",60 to 74

# Same assay, conditions: post-emergence, 336 h, KCHSC: kochia (Bassia scoparia), 140 g ai/ha, 14 days after application, read-out: Visual Growth Reduction (%) 14 Days After Application, KCHSC
row,SMILES,pest or weed control at 140 g/ha [%]
1,"COC(=O)c1nc(-c2ccc(OS(C)(=O)=O)cc2Cl)ccc1Cl [F288, methyl 3-chloro-6-(2-chloro-4-((methylsulfonyl)oxy)phenyl)picolinate]",75 to 84
2,"COc1c(Cl)ccc(-c2ccc(Cl)c(C(=O)OCc3ccccc3)n2)c1F [F299, Benzyl 3-chloro-6-(4-chloro-2-fluoro-3-methoxyphenyl) picolinate]",75 to 84

# Same assay, conditions: post-emergence, 336 h, ORYSA: rice (Oryza sativa), 140 g ai/ha, 14 days after application, read-out: Visual Growth Reduction (%) 14 Days After Application, ORYSA
row,SMILES,pest or weed control at 140 g/ha [%]
1,"COC(=O)c1nc(-c2ccc(OS(C)(=O)=O)cc2Cl)ccc1Cl [F288, methyl 3-chloro-6-(2-chloro-4-((methylsulfonyl)oxy)phenyl)picolinate]",0 to 29
2,"COc1c(Cl)ccc(-c2ccc(Cl)c(C(=O)OCc3ccccc3)n2)c1F [F299, Benzyl 3-chloro-6-(4-chloro-2-fluoro-3-methoxyphenyl) picolinate]",0 to 29

# Same assay, conditions: post-emergence, 336 h, SETFA: giant foxtail (Setaria faberi), 140 g ai/ha, 14 days after application, read-out: Visual Growth Reduction (%) 14 Days After Application, SETFA
row,SMILES,pest or weed control at 140 g/ha [%]
1,"COC(=O)c1nc(-c2ccc(OS(C)(=O)=O)cc2Cl)ccc1Cl [F288, methyl 3-chloro-6-(2-chloro-4-((methylsulfonyl)oxy)phenyl)picolinate]",60 to 74
2,"COc1c(Cl)ccc(-c2ccc(Cl)c(C(=O)OCc3ccccc3)n2)c1F [F299, Benzyl 3-chloro-6-(4-chloro-2-fluoro-3-methoxyphenyl) picolinate]",0 to 29

# Same assay, conditions: post-emergence, 336 h, SORVU: grain sorghum (Sorghum vulgare), 140 g ai/ha, 14 days after application, read-out: Visual Growth Reduction (%) 14 Days After Application, SORVU
row,SMILES,pest or weed control at 140 g/ha [%]
1,"COC(=O)c1nc(-c2ccc(OS(C)(=O)=O)cc2Cl)ccc1Cl [F288, methyl 3-chloro-6-(2-chloro-4-((methylsulfonyl)oxy)phenyl)picolinate]",85 to 94
2,"COc1c(Cl)ccc(-c2ccc(Cl)c(C(=O)OCc3ccccc3)n2)c1F [F299, Benzyl 3-chloro-6-(4-chloro-2-fluoro-3-methoxyphenyl) picolinate]",0 to 29

# Same assay, conditions: post-emergence, 336 h, STEME: common chickweed (Stellaria media), 140 g ai/ha, 14 days after application, read-out: Visual Growth Reduction (%) 14 Days After Application, STEME
row,SMILES,pest or weed control at 140 g/ha [%]
1,"COC(=O)c1nc(-c2ccc(OS(C)(=O)=O)cc2Cl)ccc1Cl [F288, methyl 3-chloro-6-(2-chloro-4-((methylsulfonyl)oxy)phenyl)picolinate]",0 to 29
2,"COc1c(Cl)ccc(-c2ccc(Cl)c(C(=O)OCc3ccccc3)n2)c1F [F299, Benzyl 3-chloro-6-(4-chloro-2-fluoro-3-methoxyphenyl) picolinate]",60 to 74

# Same assay, conditions: post-emergence, 336 h, TRZAS: wheat, spring (Triticum aestivum), 140 g ai/ha, 14 days after application, read-out: Visual Growth Reduction (%) 14 Days After Application, TRZAS
row,SMILES,pest or weed control at 140 g/ha [%]
1,"COC(=O)c1nc(-c2ccc(OS(C)(=O)=O)cc2Cl)ccc1Cl [F288, methyl 3-chloro-6-(2-chloro-4-((methylsulfonyl)oxy)phenyl)picolinate]",30 to 44
2,"COc1c(Cl)ccc(-c2ccc(Cl)c(C(=O)OCc3ccccc3)n2)c1F [F299, Benzyl 3-chloro-6-(4-chloro-2-fluoro-3-methoxyphenyl) picolinate]",0 to 29

# Same assay, conditions: post-emergence, 336 h, blackgrass (Alopecurus myosuroides), 14 Days After Application, 140 g ai/ha, read-out: Visual Growth Reduction (%) ALOMY
row,SMILES,pest or weed control at 140 g/ha [%]
1,"COC(=O)c1nc(-c2ccc(OS(C)(=O)=O)cc2Cl)ccc1Cl [F288, methyl 3-chloro-6-(2-chloro-4-((methylsulfonyl)oxy)phenyl)picolinate]",0 to 29
2,"COc1c(Cl)ccc(-c2ccc(Cl)c(C(=O)OCc3ccccc3)n2)c1F [F299, Benzyl 3-chloro-6-(4-chloro-2-fluoro-3-methoxyphenyl) picolinate]",0 to 29

# Same assay, conditions: post-emergence, 336 h, canada thistle (Cirsium arvense), 14 Days After Application, 140 g ai/ha, read-out: Visual Growth Reduction (%) CIRAR
row,SMILES,pest or weed control at 140 g/ha [%]
1,"COC(=O)c1nc(-c2ccc(OS(C)(=O)=O)cc2Cl)ccc1Cl [F288, methyl 3-chloro-6-(2-chloro-4-((methylsulfonyl)oxy)phenyl)picolinate]",95 to 100
2,"COc1c(Cl)ccc(-c2ccc(Cl)c(C(=O)OCc3ccccc3)n2)c1F [F299, Benzyl 3-chloro-6-(4-chloro-2-fluoro-3-methoxyphenyl) picolinate]",75 to 84

# Same assay, conditions: post-emergence, 336 h, crabgrass (Digitaria sanguinalis), 14 Days After Application, 140 g ai/ha, read-out: Visual Growth Reduction (%) DIGSA
row,SMILES,pest or weed control at 140 g/ha [%]
1,"COC(=O)c1nc(-c2ccc(OS(C)(=O)=O)cc2Cl)ccc1Cl [F288, methyl 3-chloro-6-(2-chloro-4-((methylsulfonyl)oxy)phenyl)picolinate]",75 to 84
2,"COc1c(Cl)ccc(-c2ccc(Cl)c(C(=O)OCc3ccccc3)n2)c1F [F299, Benzyl 3-chloro-6-(4-chloro-2-fluoro-3-methoxyphenyl) picolinate]",0 to 29

# Same assay, conditions: post-emergence, 336 h, lambsquarters (Chenopodium album), 14 Days After Application, 140 g ai/ha, read-out: Visual Growth Reduction (%) CHEAL
row,SMILES,pest or weed control at 140 g/ha [%]
1,"COC(=O)c1nc(-c2ccc(OS(C)(=O)=O)cc2Cl)ccc1Cl [F288, methyl 3-chloro-6-(2-chloro-4-((methylsulfonyl)oxy)phenyl)picolinate]",85 to 94
2,"COc1c(Cl)ccc(-c2ccc(Cl)c(C(=O)OCc3ccccc3)n2)c1F [F299, Benzyl 3-chloro-6-(4-chloro-2-fluoro-3-methoxyphenyl) picolinate]",75 to 84

# Same assay, conditions: post-emergence, 336 h, redroot pigweed (Amaranthus retroflexus), 14 Days After Application, 140 g ai/ha, read-out: Visual Growth Reduction (%) AMARE
row,SMILES,pest or weed control at 140 g/ha [%]
1,"COC(=O)c1nc(-c2ccc(OS(C)(=O)=O)cc2Cl)ccc1Cl [F288, methyl 3-chloro-6-(2-chloro-4-((methylsulfonyl)oxy)phenyl)picolinate]",85 to 94
2,"COc1c(Cl)ccc(-c2ccc(Cl)c(C(=O)OCc3ccccc3)n2)c1F [F299, Benzyl 3-chloro-6-(4-chloro-2-fluoro-3-methoxyphenyl) picolinate]",60 to 74

# Same assay, conditions: post-emergence, 336 h, wild oat (Avena fatua), 14 Days After Application, 140 g ai/ha, read-out: Visual Growth Reduction (%) AVEFA
row,SMILES,pest or weed control at 140 g/ha [%]
1,"COC(=O)c1nc(-c2ccc(OS(C)(=O)=O)cc2Cl)ccc1Cl [F288, methyl 3-chloro-6-(2-chloro-4-((methylsulfonyl)oxy)phenyl)picolinate]",0 to 29
2,"COc1c(Cl)ccc(-c2ccc(Cl)c(C(=O)OCc3ccccc3)n2)c1F [F299, Benzyl 3-chloro-6-(4-chloro-2-fluoro-3-methoxyphenyl) picolinate]",0 to 29

# Same assay, conditions: post-emergence, 336 h, yellow nutsedge (Cyperus esculentus), 14 Days After Application, 140 g ai/ha, read-out: Visual Growth Reduction (%) CYPES
row,SMILES,pest or weed control at 140 g/ha [%]
1,"COC(=O)c1nc(-c2ccc(OS(C)(=O)=O)cc2Cl)ccc1Cl [F288, methyl 3-chloro-6-(2-chloro-4-((methylsulfonyl)oxy)phenyl)picolinate]",0 to 29
2,"COc1c(Cl)ccc(-c2ccc(Cl)c(C(=O)OCc3ccccc3)n2)c1F [F299, Benzyl 3-chloro-6-(4-chloro-2-fluoro-3-methoxyphenyl) picolinate]",75 to 84
